# Measured values published in US11980612B2, “Synergistic anti-inflammatory compositions” (The Procter & Gamble Company, priority 2020, dated 2024).
# Several values for one entry are separate records, joined by “and”; a condition that tells them apart may be missing. Equal entries are not always repeated.
# Key:
# [1] = tested on: PGE2 release from TERT keratinocytes (tKC); assay: PGE2 assay: inhibition of PGE2 release from UVB-stressed TERT keratinocytes, normalized to ATP; type: cell-based, human; conditions: PO 1 × 10−7 w/v %, actives alone or combination (observed), 15 mJ/cm2 UVB, 18-24 hours
# From the text: Inhibiting the Cell's Inflammation Response to a Stressor-Prostaglandin E2 (“PGE2”) Assay.
# PGE2 is a hormone-like substance that is known to participate in modulation of inflammation. Cellular inflammation is associated with a variety of hair, skin and scalp conditions, and thus inhibiting PGE2 activation vis-à-vis cellular inflammation may help treat these types of hair, skin and scalp conditions.
# TERT keratinocytes (“tKC” are human keratinocytes which have been transfected with the human telomerase reverse transcriptase gene to immortalize the cells) were obtained from Jerry Shay, University of Texas, Southwestern and plated at 40,000 cells/well into 24-well plates in 1 ml/well volume. EpiLife Medium (Life Technologies cat #MEPICFPRF500) supplemented with keratinocyte growth supplement (Life technologies cat #S-001-5) was used as the assay media. The cells were grown to confluence/near confluence, (typically 24 hours after plating 40,000 cells/well in 24 well plate) and then subjected to 15 mJ/cm^2 UVB-stress (typically […] in BioSun). The test compositions (strobilurins, piroctone olamine, strobilurins+piroctone olamine, and positive control 10 uM idebenone) were added to replace the medium (EpiLife Medium with 0.1% final concentration of DMSO—briefly, 1000× stocks of actives and combinations made in 100% DMSO and diluted into Epilife media 1 to 1000), and the plates were incubated for 18-24 hours.
# The supernatant is removed from each well, and the cells are rinsed with 2 ml/well medium (without supplements). A Cell Titer-Glo assay (Promega cat #G7571; Madison WI) is used to measure ATP activity, is conducted on the cells for normalization. The supernatant is tested in a PGE2 assay (Prostaglandin E2 Assay kit from Cisbio Bioassays cat #62P2APEB) according to the manufacturer's instructions. The PGE2 results are normalized to ATP activity. The PGE2 quantitation (pg/mL) from the supernatant is divided by the normalization factor (treatment ATP/control ATP).
# Example Calculation to Compute PGE2 Inhibition by Strobilurin: • Luminescence of vehicle control in ATP assay=704567 • Luminescence of strobilurin treatment in ATP assay=678903 • Normalization factor for strobilurin treatment=1.038 • PGE2 quantitation for vehicle control=2458 pg/mL PGE2 • PGE2 quantitation for strobilurin treatment=2347 pg/mL PGE2 • Normalized PGE2 values • control=2458/1=2458 • strobilurin=2347/1.038=2261 • % inhibition for strobilurin=[100×(2458−[…])/2458]=8%
# Student's T-Test (equal variance, 2 sided) are used to calculate p-values between observed combinations and expected combinations with p-value<0.05 considered statistically significant. Expected combination values are calculated by adding the PGE2 inhibition values of strobilurins alone and piroctone olamine alone. Synergy factor is simply the ratio of observed combination/expected combination. Synergy factors greater than 1.0 with a p-value<0.05 are deemed synergistic.
# [2] = general statement, no method; cited from earlier work
# [3] = strobilurin 1 × 10−7 w/v %, strobilurin:PO ratio 1:1
# [4] = strobilurin 1 × 10−8 w/v %, strobilurin:PO ratio 1:10
# [5] = strobilurin 1 × 10−9 w/v %, strobilurin:PO ratio 1:50
# [6] = strobilurin 4 × 10−7 w/v %, strobilurin:PO ratio 4:1
SMILES,"% PGE2 Inhibition [1, 3] [%]","% PGE2 Inhibition [1, 4] [%]","% PGE2 Inhibition [1, 5] [%]","% PGE2 Inhibition [1, 6]",solubility in water [2]
CON=C(C(=O)OC)c1ccccc1CON=C(C)c1cccc(C(F)(F)F)c1 [trifloxystrobin],3.2,0.5,0.7,8.3%,–
"Cc1cc(CC(C)CC(C)(C)C)n(O)c(=O)c1.NCCO (stereo not drawn) [PO, piroctone olamine]",3.2,2.6,2.4,2.8% and 2.2%,–
CO/C=C(/C(=O)OC)c1ccccc1COc1cccc(C(F)(F)F)n1 [picoxystrobin],2.5,8.4,8.9,16.7%,–
CNC(=O)/C(=N/OC)c1ccccc1COc1cc(C)ccc1C [dimoxystrobin],18.9,7.6,4.1,12.4%,–
CO/N=C(/C1=NOCCO1)c1ccccc1Oc1ncnc(Oc2ccccc2Cl)c1F [fluoxastrobin],5.6,3.3,1,8.6%,–
CNC(=O)/C(=N/OC)c1ccccc1CO/N=C(C)/C(=N/OC)C(/C)=N/OC [orysastrobin],8.2,15.6,1.1,4.7%,–
CO/C=C(/C(=O)OC)c1ccccc1Oc1cc(Oc2ccccc2C#N)ncn1 [azoxystrobin],8,1,1,13%,low solubility in water
CO/N=C(/C(=O)OC)c1ccccc1COc1ccccc1C [kresoxim methyl],4.1,7.3,3.2,6.7%,–
